Tests used:
[1] = MTT cell viability assay in RAW 264.7 cells; format: cell-based, murine; settings: mouse, RAW 264.7 macrophage cells, RAW 264.7, MTT; for viability at 24 h: tested concentrations up to 40 μM
Method: (§1) Absorbance was measured at 570 nm using a microplate reader.
(§2) All experiments were performed in triplicate.

[2] = test system: nitric oxide (NO) production in LPS-stimulated RAW 264.7 cells; test: Nitric oxide production in LPS-stimulated RAW 264.7 cells (Griess reagent); format: cell-based, murine; settings: for effect on NO production (result in words): 5, 10, 20 and 40 µM, LPS-stimulated RAW 264.7; for reduction of NO production: 40 µM, relative to the LPS-treated group, LPS 24 h
Method: NO levels in the culture supernatants were quantified using the Griess reagent assay, and absorbance was measured at 540 nm.
RAW 264.7 cells were maintained in Dulbecco’s Modified Eagle Medium (DMEM, Sigma-Aldrich, St. Louis, MO, USA) supplemented with 10% heat-inactivated fetal bovine serum (FBS, Invitrogen, Burlington, ON, Canada) and 1% (w/v) antibiotic-antimycotic solution (Invitrogen, Grand Island, NY, USA). The cells were cultured in a humidified incubator at 37 °C under 95% air and 5% CO2 conditions.
The production of NO was quantified by measuring nitrite levels in the culture supernatants using the Griess reagent (1% sulfanilamide, 0.1% N-(1-naphthyl)-ethylenediamine dihydrochloride, and 5% phosphoric acid). […] The cells were then stimulated with 0.5 μg/mL lipopolysaccharide (LPS, Sigma-Aldrich, CA, USA) for 24 h in a total volume of 200 μL. After incubation, 100 μL of culture supernatant was mixed with an equal volume of Griess reagent and incubated at room temperature for 5 min. Sodium nitrite was used as a standard for calibration, and nitrite concentration was determined by measuring absorbance at 540 nm. All experiments were conducted in triplicate.

β-secretase (BACE-1) = molecular target: T1, β-secretase (BACE-1) (Homo sapiens, UniProt P56817); test: BACE-1 FRET-based inhibition assay; format: biochemical; settings: 60 min at room temperature, mean ± SD, ND = no detectable inhibitory activity
T1 construct: purchased Thermo Fisher Scientific, San Diego, CA, USA
T1 sequence (P56817 46-501): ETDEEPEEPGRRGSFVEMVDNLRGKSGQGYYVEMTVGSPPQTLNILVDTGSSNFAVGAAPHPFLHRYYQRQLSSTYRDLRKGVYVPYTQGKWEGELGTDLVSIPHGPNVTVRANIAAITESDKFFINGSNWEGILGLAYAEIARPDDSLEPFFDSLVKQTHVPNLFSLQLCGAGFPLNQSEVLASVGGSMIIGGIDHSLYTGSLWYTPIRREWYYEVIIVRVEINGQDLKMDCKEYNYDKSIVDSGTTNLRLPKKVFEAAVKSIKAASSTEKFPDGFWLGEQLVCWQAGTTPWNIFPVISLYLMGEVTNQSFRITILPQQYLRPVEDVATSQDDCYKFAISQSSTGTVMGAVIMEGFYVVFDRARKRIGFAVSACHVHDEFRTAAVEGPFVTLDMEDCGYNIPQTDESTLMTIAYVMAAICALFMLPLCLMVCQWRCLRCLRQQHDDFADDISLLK
Method: The reaction was initiated by adding 10 µL of a 3× BACE-1 enzyme solution. Plates were incubated at room temperature for 60 min in the dark. After incubation, 10 µL of 2.5 mM sodium acetate was added to terminate the reaction. Fluorescence was measured using a multimode plate reader (Multiskan™ GO, Thermo Scientific, Waltham, MA, USA) with an excitation wavelength of 545 nm and an emission wavelength of 585 nm. The IC50 values were determined by plotting relative fluorescence units per hour (RFU/h) against the logarithmic inhibitor concentrations. All experiments were performed in triplicate.

[3] = molecular target: T2, tau protein (tau-BiFC SH-SY5Y cell line) (Homo sapiens, UniProt P10636); test: Tau-BiFC SH-SY5Y anti-tau aggregation assay; format: cell-based; settings: 10 μM, 24 h, compared to the control group
T2 construct: split fluorescent protein fragments for BiFC (complementing N- and C-terminal halves); expressed in transfected cells; host or cells: SH-SY5Y
T2 sequence (P10636 1-441 isoform P10636-8): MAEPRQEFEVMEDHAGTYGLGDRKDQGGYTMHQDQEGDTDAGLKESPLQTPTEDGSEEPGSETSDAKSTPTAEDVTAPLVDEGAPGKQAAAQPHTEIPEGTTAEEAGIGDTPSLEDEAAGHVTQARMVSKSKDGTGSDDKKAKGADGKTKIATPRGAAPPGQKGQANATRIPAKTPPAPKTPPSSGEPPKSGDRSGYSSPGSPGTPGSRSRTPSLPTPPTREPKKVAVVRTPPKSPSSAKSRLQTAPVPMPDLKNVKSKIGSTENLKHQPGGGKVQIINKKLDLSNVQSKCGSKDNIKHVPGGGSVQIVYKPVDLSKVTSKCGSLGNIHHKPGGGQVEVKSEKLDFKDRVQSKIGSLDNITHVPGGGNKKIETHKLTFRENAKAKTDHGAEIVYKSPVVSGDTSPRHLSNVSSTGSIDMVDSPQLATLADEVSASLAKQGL
Method: Cells were maintained at 37 °C in a humidified incubator with 5% CO2.

[4] = DPPH radical scavenging assay (antioxidant activity); format: biochemical; settings: in methanol, 30 min, absorbance at 540 nm
Method: Absorbance was measured at 540 nm. All experiments were conducted in triplicate.

NLRP3 = NLRP3 ELISA in LPS-stimulated RAW 264.7 cells; format: cell-based, murine; settings: for NLRP3 inhibition (result in words): 40 µM; for inhibition at 40 µM: Mus musculus, RAW264.7, read-out: NLRP3 inhibition rate
Method: For evaluating the NLRP3 inhibitory activity, the highest concentration of 40 µM was selected, as this concentration had previously been confirmed to maintain cell viability (Section 2.4.1).
To assess NLRP3 inflammasome activation, RAW 264.7 macrophages were seeded at a density of 5 × 10^5 cells/well in 96-well plates. […] The levels of NLRP3 in the culture supernatant were quantified using a commercially available ELISA kit (Lsbio, WA, USA) according to the manufacturer’s protocol. Absorbance was measured at 450 nm, and NLRP3 concentrations were determined using a standard curve, expressed in ng/mL. To ensure statistical accuracy, all experiments were performed in duplicate.

RAW 264.7 cells = test: MTT cell viability assay in RAW 264.7 cells; format: cell-based, murine; settings: RAW 264.7, MTT, 24 h, 5-40 μM
Method: as §1, §2

SMILES	IC50 [4] [µM]	IC50 (β-secretase (BACE-1)) [µM]	viability at 24 h, 40 µM [1] [%]	effect on NO production (result in words) [2]	BACE-1 IC50 (β-secretase (BACE-1))	anti-tau aggregation effect (BiFC fluorescence, result in words) [3]	NLRP3 inhibition (result in words) (NLRP3)	viability at 24 h [1] [%]	inhibition at 40 µM (NLRP3) [%]	cytotoxicity (result in words) (RAW 264.7 cells)	reduction of NO production [2]
CN(C)NC(=O)CC[C@H](N)C(=O)O [RA-DMe, N^5-(dimethylamino)glutamine]	598		> 80	moderate NO-reducing effect	no detectable BACE-1 inhibitory activity (ND)	did not exhibit significant anti-tau aggregation activity	no significant NLRP3-inhibitory effects				
NC(CCC(=O)NNc1cccc(C(F)(F)F)c1)C(=O)O (stereo not drawn) [RA-3CF3, N^5-((3-(triflouromethyl)phenyl)amino)glutamine]	31.7 ± 14.6	0.33 ± 0.79		concentration-dependent reduction in NO levels		did not show significant anti-tau effects		> 100	10 to 15		
N[C@@H](CCC(=O)NNc1ccc2ccccc2n1)C(=O)O [RA-2Q, N^5-(quinolin-2-ylamino)glutamine]	9.7 ± 0.32			did not significantly suppress NO production	no detectable BACE-1 inhibitory activity (ND)	significant reductions in tau aggregation			≥ 20	no significant reduction in cell survival	
CC(C)NNC(=O)CC[C@H](N)C(=O)O [RA-IPr, N^5-(Isopropylamino)glutamine]	2580 ± 359			did not significantly suppress NO production	no detectable BACE-1 inhibitory activity (ND)	did not exhibit significant anti-tau aggregation activity	no significant NLRP3-inhibitory effects			no significant reduction in cell survival	
N[C@@H](CCC(=O)NNc1ccccn1)C(=O)O [RA-PYD, N^5-(pyridin-2-ylamino)glutamine]	7.4 ± 3.54	0.32 ± 0.08		did not significantly suppress NO production		significant reductions in tau aggregation			≥ 20	no significant reduction in cell survival	
COc1ccc(NNC(=O)CC[C@H](N)C(=O)O)cc1 [RA-4OMe, N^5-((4-methoxyphenyl)amino)glutamine]	5.49 ± 0.63	25 ± 5.72		concentration-dependent reduction in NO levels		moderate inhibitory effects		> 100	≥ 20		25~35%

The next lines start with results.

IC50 [4] [µM]	IC50 (β-secretase (BACE-1)) [µM]	SMILES	viability at 24 h, 40 µM [1] [%]	effect on NO production (result in words) [2]	BACE-1 IC50 (β-secretase (BACE-1))	anti-tau aggregation effect (BiFC fluorescence, result in words) [3]	NLRP3 inhibition (result in words) (NLRP3)	viability at 24 h [1] [%]	inhibition at 40 µM (NLRP3) [%]	cytotoxicity (result in words) (RAW 264.7 cells)	reduction of NO production [2]
3.77 ± 0.09	9.89 ± 13.6	NC(CCC(=O)NNc1ccc(OC(F)(F)F)cc1)C(=O)O (stereo not drawn) [RA-4OCF3, N^5-((4-(triflouromethoxy)phenyl)amino)glutamine]		concentration-dependent reduction in NO levels				> 100	≥ 20		
1.77 ± 0.12	0.66 ± 1.05	NC(CCC(=O)NNc1cccc2ccccc12)C(=O)O (stereo not drawn) [RA-NAP]	> 80	moderate NO-reducing effect		significant reductions in tau aggregation			10 to 15		
3 ± 0.03	11.6 ± 14	NC(CCC(=O)NNc1ccccc1C(F)(F)F)C(=O)O (stereo not drawn) [RA-2CF3, N^5-((2-(triflouromethyl)phenyl)amino)glutamine]		moderate NO-reducing effect				> 100	≥ 20		
2.81 ± 0.03	7.97 ± 2.46	COc1ccccc1NNC(=O)CC[C@H](N)C(=O)O [RA-2OMe, N^5-((2-methoxyphenyl)amino)glutamine]		concentration-dependent reduction in NO levels		moderate inhibitory effects		> 100	≥ 20		25~35%

Reference: PMC12073177 (Molecules, 2025)
